Like-named read-outs stand apart in the source and are kept apart here.
Tests used:
P. aeruginosa = assay: Checkerboard assay of EDTA and antibiotics with and without acidified nitrite background; assay type: cell-based, Pseudomonas aeruginosa
Protocol: The antibiotic agents used in these studies included Tobramycin, Azithromycin, Colistin, Ticarcillin, Ciprofloxacin, Sulfametoxazole, Sulfamethazine, Tetracycline, Vancomycin, Imipenem, and Cefepime. […] Aerobic samples are incubated for 24 or 48 hours, and anaerobic samples are incubated for 48 hours.

PA = details: EDTA alone; cited from earlier work
PA strain PAO1 = assay: Optical density growth/viability of PAO1 with A-NO2-, EDTA and/or tobramycin; assay type: cell-based, Pseudomonas aeruginosa; details: for growth of PAO1: 15 mM A-NO2- or 1 mM EDTA and 2 μg/ml TOBI
Protocol: FIG. 2 represent optical density measurements with control (untreated) bacteria arbitrarily set to 1.0 after 24 and 48 hr of growth at 37° C. in a standard rich medium known Luria broth (LB). Another experiment included the powerful aminoglycoside antibiotic, tobramycin (TOBI), that is commonly used for the treatment of PA CF/COPD lung infections (Moreau-Marquis S, et al. 2009. Am J Respir Cell Mol Biol 41:305-313; Dal Negro R, et al. 2008. Adv Ther 25:1019-1030). Nitrite was used at 25 mM (aerobic) or 15 mM (anaerobic); EDTA, 1.0 mM; TOBI, 2 μg/ml. Anaerobic LB was supplemented with 0.1 M potassium phosphate, pH 6.5 and 100 mM KNO3 as a terminal electron acceptor for anaerobic growth.

P. aeruginosa (PAO1) = details: 10 mM EDTA; 30 mM NaNO2; 10 mM EDTA-10 mM NaNO2
Protocol: BALB/c mice (8 per group) were infected with 1.7×10^6 P. aeruginosa (PAO1) in 1 mg/ml alginate.
The infected mice (n=8) were treated with either (i) 10 mM PBS, pH 6.5, (ii) 10 mM EDTA in PBS, pH 6.5, (iii) 30 mM NaNO2 in PBS, pH 6.5, or (iv) 10 mM EDTA-10 mM NaNO2 in PBS, pH 6.5. Agents were administered as inhaled therapies beginning at 12 hours post-inoculation and continued once daily.

P. aeruginosa biofilm = details: acidified nitrite 15, 25, 35 mM and EDTA 1, 5, 10 mM alone, aerobic and anaerobic, 24 hours treatment
Protocol: In order to determine the efficacy of the combination treatment for biofilm elimination, we employed a Crystal Violet assay. This allows us to determine the total biomass of the biofilm.
Crystal Violet stains biofilm mass which is a quantitative measure of biofilm density/thickness, but not necessarily viability (live/dead) of the biomass.
Cultures are grown for 24 hours aerobically or anaerobically, and then treated for 24 hours before assay.
P. aeruginosa was allowed to adhere to 96 well polystyrene 96 well microplates at incubate at 37° C. under aerobic vs. anaerobic conditions. The biofilms were washed with PBS and stained with 1% crystal violet (CV) for 15 minutes at room temperature. The CV was removed and the stained bacteria washed an additional 3 times prior to solubilization of the CV with 95% ethanol. The absorbance at 590 nm was monitored using a microplate reader.

[1] = cited from earlier work
mucoid FRD1 = details: cited from earlier work
FRD1 = details: mucA mutant FRD1; cited from earlier work
anaerobic FRD1 biofilms = details: 15 mM NO2-, cited from earlier work
non-mucoid FRD1/pmucA = details: cited from earlier work
[2] = tested on: non-mucoid strains, PAO1 and FRD1/pmucA; details: 15 mM A-NO2-, pH 6.5, anaerobic, 4 day incubation; cited from earlier work
[3] = tested on: mucoid FRD1 and non-mucoid FRD1/pmucA; details: anaerobic 15 mM NO2-, pH 6.5, after 5 days, cited from earlier work
mucoid PA CF strain FRD1 = details: 15 mM A-NO2-, pH 6.5, anaerobic; cited from earlier work
FRD1/pmucA = details: mucA complemented strain, pH values between 6.0 and 7.5; cited from earlier work

CC[C@H]1OC(=O)[C@H](C)[C@@H](O[C@H]2C[C@@](C)(OC)[C@@H](O)[C@H](C)O2)[C@H](C)[C@@H](O[C@@H]2O[C@H](C)C[C@H](N(C)C)[C@H]2O)[C@](C)(O)C[C@@H](C)CN(C)[C@H](C)[C@@H](O)[C@]1(C)O [Azithromycin]
bactericidal activity of the antibiotic when combined with NaNO2 and EDTA (P. aeruginosa): synergistically increases the bactericidal activity
result in combination with EDTA/NO2- (P. aeruginosa; compared with the other antibiotic agents): best results so far in combination

O=C(O)CN(CCN(CC(=O)O)CC(=O)O)CC(=O)O [EDTA, ethylene diamine tetraacetic acid, reference compound]
clinical course or airway microbial flora (PA): not modify the clinical course or the airway microbial flora
growth of PAO1 (PA strain PAO1): initially impaired
average CFU/lung relative to control (PBS) (P. aeruginosa (PAO1)): reduced
MICs of EDTA upon addition of acidified nitrite (P. aeruginosa; nitrite background 7.5 mM): decreased
biomass density/thickness of biofilm (P. aeruginosa biofilm): reduction of biomass density/thickness
toxicity in humans ([1]; in vivo): minimal toxicity

NC[C@H]1O[C@H](O[C@H]2[C@H](O)[C@@H](O[C@H]3O[C@H](CO)[C@@H](O)[C@H](N)[C@H]3O)[C@H](N)C[C@@H]2N)[C@H](N)C[C@@H]1O [TOBI, tobramycin]
growth of PAO1 (PA strain PAO1): initially impaired
killing PA (PA strain PAO1; anaerobic conditions, TOBI 2 μg/ml): not effective
bactericidal activity of the antibiotic when combined with NaNO2 and EDTA (P. aeruginosa): synergistically increases the bactericidal activity

acidified nitrite [A-NO2^−]
bacteria in mouse lungs after long-term treatment (mucoid FRD1; 15 mM NO2- daily for 16 days): no bacteria detected
competitive index (mucoid FRD1; FRD1, 10^6 intratracheally instilled into CD1 mouse airways, 6 days): ~0.2
decrease of bacteria in mouse lungs (mucoid FRD1; pH 5.5, daily treatment): > 3 logs
decrease of bacteria in mouse lungs (mucoid FRD1; pH 6.5, daily treatment): > 2 logs
killing as a function of pH (FRD1): more effectively at lower pH
death of biofilm bacteria (anaerobic FRD1 biofilms; pH 6.5, 2 days): nearly complete death of biofilm bacteria
biofilm structure and cell viability relative to control biofilms (anaerobic FRD1 biofilms; pH 7.5, 2 days): no difference in biofilm structure and cell viability
competitive index (non-mucoid FRD1/pmucA; complemented strain FRD1/pmucA, CD1 mouse airways, 6 days): ~1.0
decrease of bacteria in mouse lungs (non-mucoid FRD1/pmucA; pH 6.5 and pH 5.5): not
viability of non-mucoid strains [2]: remained viable
growth of PAO1 (PA strain PAO1): initially impaired
CFU of mucoid FRD1 in mixed culture ([3]; three bacterial ratios): < 10^3 CFU/ml
viability of mucoid FRD1 in mixed culture [3]: lost viability
viability of non-mucoid FRD1/pmucA in mixed culture [3]: maintained viability
average CFU/lung relative to control (PBS) (P. aeruginosa (PAO1)): reduced
rate of killing of mucoid FRD1 (mucoid PA CF strain FRD1): ~90 % per day
biomass density/thickness of biofilm (P. aeruginosa biofilm): reduction of biomass density/thickness
killing as a function of pH (FRD1/pmucA): little or no killing
toxicity in humans ([1]; each agent separately): minimal toxicity

— patent US9925206B2, “Compositions and methods for treating bacterial infection” (priority 2015, dated 2018)
